According to patent publication US20240216401A1, “COMBINATION THERAPY BY USING AKR1C3-ACTIVATED COMPOUND WITH IMMUNE CHECKPOINT INHIBITOR” (OBI Pharma, Inc., priority 2021, published 2024):
Several values for one entry are separate records, joined by “and”; a condition that tells them apart may be missing. Identical values can stand only once.

Legend:
HepG2 tumor = test: Example 2: tumor volume, tumor weight and TGI in HepG2 tumor bearing humanized mice; format: in vivo, Mus musculus; conditions: for mean tumor volume: mean±SEM; for tumor growth inhibition (TGI): Day 30 vs Day 0, alone or with anti-hPD-1 20 mg/kg
Procedure: (§1) 1. Species: Mus musculus • Strain: Advanced immunodeficiency mouse. • (NOD.CgPrkdc^scid Il2rg) • Source: Trineo Biotechnology Co., LTD.
(§2) Each group contains six mice. The human hepatocellular carcinoma cell line HepG2 were subcutaneously inoculated to the advanced immune-deficiency mice. Total of 42 mice were included in this study.
2.2. […] The subcutaneous injection volume was […].
(§3) 3.1. […] The injection was performed using insulin syringe with the dosage of 0.3 mg/kg or 1 mg/kg and the injection volume was 5 mL/kg. […] The reference item was administered for G1. The procedure followed the standards of sample administration. The starting day of test item administration was denoted as the first experimental day (DO).
(§4) 3.2. […] The injection was performed using insulin syringe with the dosage of 20 mg/kg and injection volume of 10 mL/kg. […] The procedure followed the standards of sample administration.
The measurement was performed from the next day of the inoculation. The tumor volumes were measured and recorded twice a week (Mon., Thur.). Tumor volume was calculated by ellipsoid equation according to the records ((major axis×minor axis×minor axis)×(π/6)).
Tumor volumes were used to calculate tumor growth inhibition (TGI) rates according to the following formula: TGI (%)=[1−(Ti−T0)/(Ci−C0)]×100, where Ti and Ci indicate the mean tumor volume in the treatment groups and vehicle group at the end of the experiment (Day 30). Whereas, T0 and C0 indicate the mean tumor volumes in the treatment group and vehicle group at the beginning of the experiment (Day 0).
Mice were sacrificed by CO2 euthanasia at the end of the study duration, and the connective tissue around tumor was resected. The tumor samples were then weighed and cut equally into three sections if the tumor weight over 400 mg. The tumor tissue was prepared for the isolation of tumor-infiltrating lymphocytes (TILs). The rest of one section was fixed in 10% formaldehyde and embedded in paraffin; the other was stored at a temperature below −70° C.

[1] = Example 2: body weight of HepG2 tumor bearing humanized mice; format: in vivo, Mus musculus; conditions: for Body Weight: G2: OBI-3424 0.3 mg/kg, individual animal, 0.3 mg/kg
Procedure: as §1, §2, §3, §4
The measurement was performed from the next day of the inoculation. The animal body weights were measured and recorded twice per week.

[2] = G2 OBI-3424 (0.3 mg/kg), D30, group Mean
[3] = G2 OBI-3424 (0.3 mg/kg), D30, individual animals, 0.3 mg/kg
[4] = G3 OBI-3424 (1 mg/kg), D30, individual animals, 1 mg/kg

**Q.** Which “dose relation of reduction in mean tumor volume (in words)” value (HepG2 tumor; Example 2, D30, OBI-3424 0.3 mg/kg and 1 mg/kg) does the source give for `C[C@H](OP(=O)(N1CC1)N1CC1)c1ccc([N+](=O)[O-])c(Oc2cccc(C(=O)N(C)C)c2)c1` [OBI-3424, (S)-1-(3-(3-N,N-dimethylaminocarbonyl)phenoxyl-4-mtrophenyl)-1-ethyl-N,N′-bis(ethylene)phosphoramidate] here?
**A.** The value was “dose-related reduction”.

**Q.** What about the mean tumor volume (HepG2 tumor; Example 2, D30, OBI-3424 0.3 mg/kg IV, alone (G2) or with anti-hPD-1 20 mg/kg IP (G5)) of the same compound?
**A.** Its mean tumor volume is 716.44±31.12 mm^3.

**Q.** And the mean tumor volume (HepG2 tumor; Example 2, D30, OBI-3424 1 mg/kg IV, alone (G3) or with anti-hPD-1 20 mg/kg IP (G6))?
**A.** Its mean tumor volume is 216.90±22.20 mm^3.

**Q.** And the “mean tumor volume compared with vehicle (in words)” value (HepG2 tumor; Example 2, D30, vs vehicle (G1), OBI-3424 high-dose 1 mg/kg (G3), anti-hPD-1 20 mg/kg (G4), combinations G5-G7)?
**A.** Its value is “significantly suppressed”.

**Q.** What about the “tumor weight compared with vehicle (in words)” value (HepG2 tumor; Example 2, Day 30, OBI-3424 low-dose (G2), high-dose (G3), combinations G5-G7 vs vehicle (G1)) of the same compound?
**A.** Its value is “significantly suppressed”.

**Q.** What about the “tumor growth inhibition (TGI)” value (HepG2 tumor; Example 2, high-dose OBI-3424 (1 mg/kg)) of the same compound?
**A.** The value was 113.27%.

**Q.** And the “tumor growth inhibition (TGI)” value (HepG2 tumor; Example 2, low-dose OBI-3424 (0.3 mg/kg))?
**A.** Its value is 27.82%.

**Q.** And the “anti-tumor effect (conclusion in words)” value (HepG2 tumor; Example 2, HepG2 humanized mouse model, combination: high-dose OBI-3424)?
**A.** The value was “dose-dependent trend with anti-tumor activity”.

**Q.** What about the TGI (HepG2 tumor; G2 OBI-3424 (0.3 mg/kg)) of the same compound?
**A.** Its TGI is 27.82%.

**Q.** What about the Tumor volume (HepG2 tumor; G2 OBI-3424 (0.3 mg/kg), D0, group Mean) of the same compound?
**A.** The Tumor volume was 293.3 mm^3.

**Q.** What about the Tumor volume (HepG2 tumor; G2 OBI-3424 (0.3 mg/kg), D0, individual animals, 0.3 mg/kg) of the same compound?
**A.** Its Tumor volume is 280.0 mm^3 and 279.4 mm^3 and 226.0 mm^3 and 353.6 mm^3 and 317.7 mm^3 and 303.0 mm^3.

**Q.** What about the Tumor volume (HepG2 tumor; G2 OBI-3424 (0.3 mg/kg), D2, group Mean) of the same compound?
**A.** The Tumor volume was 300.8 mm^3.

**Q.** What about the Tumor volume (HepG2 tumor; G2 OBI-3424 (0.3 mg/kg), D2, individual animals, 0.3 mg/kg) of the same compound?
**A.** Its Tumor volume is 283.9 mm^3 and 281.1 mm^3 and 230.6 mm^3 and 354.0 mm^3 and 321.0 mm^3 and 334.4 mm^3.

**Q.** What about the Tumor volume (HepG2 tumor; G2 OBI-3424 (0.3 mg/kg), D6, group Mean) of the same compound?
**A.** Its Tumor volume is 307.8 mm^3.

**Q.** And the Tumor volume (HepG2 tumor; G2 OBI-3424 (0.3 mg/kg), D6, individual animals, 0.3 mg/kg)?
**A.** Its Tumor volume is 289.0 mm^3 and 293.9 mm^3 and 241.0 mm^3 and 356.0 mm^3 and 330.5 mm^3 and 336.3 mm^3.

**Q.** What about the Tumor volume (HepG2 tumor; G2 OBI-3424 (0.3 mg/kg), D9, group Mean) of the same compound?
**A.** The Tumor volume was 388.7 mm^3.

**Q.** And the Tumor volume (HepG2 tumor; G2 OBI-3424 (0.3 mg/kg), D9, individual animals, 0.3 mg/kg)?
**A.** Its Tumor volume is 375.6 mm^3 and 367.0 mm^3 and 395.2 mm^3 and 367.9 mm^3 and 388.9 mm^3 and 437.7 mm^3.

**Q.** And the Tumor volume (HepG2 tumor; G2 OBI-3424 (0.3 mg/kg), D13, group Mean)?
**A.** Its Tumor volume is 509.0 mm^3.

**Q.** What about the Tumor volume (HepG2 tumor; G2 OBI-3424 (0.3 mg/kg), D13, individual animals, 0.3 mg/kg) of the same compound?
**A.** Its Tumor volume is 569.5 mm^3 and 452.6 mm^3 and 528.9 mm^3 and 388.3 mm^3 and 590.7 mm^3 and 524.2 mm^3.

**Q.** And the Tumor volume (HepG2 tumor; G2 OBI-3424 (0.3 mg/kg), D16, group Mean)?
**A.** Its Tumor volume is 617.1 mm^3.

**Q.** And the Tumor volume (HepG2 tumor; G2 OBI-3424 (0.3 mg/kg), D16, individual animals, 0.3 mg/kg)?
**A.** Its Tumor volume is 714.1 mm^3 and 528.0 mm^3 and 714.4 mm^3 and 405.8 mm^3 and 749.1 mm^3 and 591.5 mm^3.

**Q.** And the Tumor volume (HepG2 tumor; G2 OBI-3424 (0.3 mg/kg), D20, group Mean)?
**A.** Its Tumor volume is 702.3 mm^3.

**Q.** What about the Tumor volume (HepG2 tumor; G2 OBI-3424 (0.3 mg/kg), D20, individual animals, 0.3 mg/kg) of the same compound?
**A.** The Tumor volume was 808.4 mm^3 and 658.4 mm^3 and 854.0 mm^3 and 419.5 mm^3 and 751.9 mm^3 and 721.3 mm^3.

**Q.** And the Tumor volume (HepG2 tumor; G2 OBI-3424 (0.3 mg/kg), D23, group Mean)?
**A.** Its Tumor volume is 744.1 mm^3.

**Q.** What about the Tumor volume (HepG2 tumor; G2 OBI-3424 (0.3 mg/kg), D23, individual animals, 0.3 mg/kg) of the same compound?
**A.** The Tumor volume was 889.2 mm^3 and 661.3 mm^3 and 890.1 mm^3 and 297.5 mm^3 and 842.6 mm^3 and 884.2 mm^3.

**Q.** What about the Tumor volume (HepG2 tumor; G2 OBI-3424 (0.3 mg/kg), D27, group Mean) of the same compound?
**A.** Its Tumor volume is 717.3 mm^3.

**Q.** What about the Tumor volume (HepG2 tumor; G2 OBI-3424 (0.3 mg/kg), D27, individual animals, 0.3 mg/kg) of the same compound?
**A.** The Tumor volume was 926.9 mm^3 and 527.6 mm^3 and 909.1 mm^3 and 205.1 mm^3 and 848.5 mm^3 and 886.5 mm^3.

**Q.** What about the Tumor volume (HepG2 tumor; [2]) of the same compound?
**A.** Its Tumor volume is 716.4 mm^3.

**Q.** What about the Tumor weight (HepG2 tumor; [2]) of the same compound?
**A.** The Tumor weight was 304.45 mg.

**Q.** And the Tumor volume (HepG2 tumor; [3])?
**A.** Its Tumor volume is 1012. mm^3 and 468.2 mm^3 and 882.8 mm^3 and 181.5 mm^3 and 850.4 mm^3 and 903.5 mm^3.

**Q.** What about the Tumor weight (HepG2 tumor; [3]) of the same compound?
**A.** Its Tumor weight is 445.50 mg and 223.90 mg and 327.90 mg and 63.40 mg and 449.00 mg and 317.00 mg.

**Q.** What about the TGI (HepG2 tumor; G3 OBI-3424 (1 mg/kg)) of the same compound?
**A.** Its TGI is 113.27%.

**Q.** And the Tumor volume (HepG2 tumor; G3 OBI-3424 (1 mg/kg), D0, individual animals, 1 mg/kg)?
**A.** Its Tumor volume is 290.8 mm^3 and 318.0 mm^3 and 286.8 mm^3.

**Q.** What about the Tumor volume (HepG2 tumor; G3 OBI-3424 (1 mg/kg), D2, individual animals, 1 mg/kg) of the same compound?
**A.** The Tumor volume was 295.5 mm^3 and 322.4 mm^3 and 292.9 mm^3.

**Q.** What about the Tumor volume (HepG2 tumor; G3 OBI-3424 (1 mg/kg), D6, individual animals, 1 mg/kg) of the same compound?
**A.** Its Tumor volume is 297.0 mm^3 and 328.4 mm^3 and 304.4 mm^3.

**Q.** What about the Tumor volume (HepG2 tumor; G3 OBI-3424 (1 mg/kg), D9, individual animals, 1 mg/kg) of the same compound?
**A.** Its Tumor volume is 337.5 mm^3 and 468.5 mm^3 and 334.0 mm^3.

**Q.** And the Tumor volume (HepG2 tumor; G3 OBI-3424 (1 mg/kg), D13, individual animals, 1 mg/kg)?
**A.** Its Tumor volume is 341.3 mm^3 and 492.3 mm^3 and 362.5 mm^3.

**Q.** And the Tumor volume (HepG2 tumor; G3 OBI-3424 (1 mg/kg), D16, individual animals, 1 mg/kg)?
**A.** The Tumor volume was 359.9 mm^3 and 556.8 mm^3 and 465.2 mm^3.

**Q.** And the Tumor volume (HepG2 tumor; G3 OBI-3424 (1 mg/kg), D20, individual animals, 1 mg/kg)?
**A.** Its Tumor volume is 345.0 mm^3 and 552.1 mm^3 and 465.2 mm^3.

**Q.** And the Tumor volume (HepG2 tumor; G3 OBI-3424 (1 mg/kg), D23, individual animals, 1 mg/kg)?
**A.** The Tumor volume was 260.7 mm^3 and 544.3 mm^3 and 419.2 mm^3.

**Q.** And the Tumor volume (HepG2 tumor; G3 OBI-3424 (1 mg/kg), D27, individual animals, 1 mg/kg)?
**A.** Its Tumor volume is 246.4 mm^3 and 426.0 mm^3 and 295.9 mm^3.

**Q.** What about the Tumor weight (HepG2 tumor; G3 OBI-3424 (1 mg/kg), D30, group Mean) of the same compound?
**A.** The Tumor weight was 84.40 mg.

**Q.** And the Tumor volume (HepG2 tumor; [4])?
**A.** Its Tumor volume is 185.2 mm^3 and 295.5 mm^3 and 215.0 mm^3.

**Q.** And the Tumor weight (HepG2 tumor; [4])?
**A.** The Tumor weight was 62.40 mg and 101.90 mg and 105.20 mg and 90.30 mg and 69.80 mg and 76.80 mg.

**Q.** What about the “body weight (in words)” value ([1]; Example 2, until Day 30) of the same compound?
**A.** Its value is “Body weight loss was not seen”.

**Q.** And the “Body Weight” value ([1]; D2 after test item administration)?
**A.** Its value is 22.12 g.

**Q.** And the “Body Weight” value ([1]; D6 after test item administration)?
**A.** Its value is 24.82 g.

**Q.** What about the “Body Weight” value ([1]; D9 after test item administration) of the same compound?
**A.** Its value is 20.84 g and 24.58 g.

**Q.** What about the “Body Weight” value ([1]; D13 after test item administration) of the same compound?
**A.** The value was 23.96 g and 24.87 g.
